Measurements taken from PubChem BioAssay (NCI).
Several values for one entry are separate records, joined by “and”; a condition that tells them apart may be missing. Equal values may be shown once.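 48-hour exposure; five concentrations; linearly interpolated endpoints. The concentration for 50% growth inhibition is given as GI50. At the TGI there is no net growth.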

How the values were obtained:
Assay in all cases: NCI tumour cell line growth inhibition, 48 h; in the data active = GI50 below about 0.43 µM; inactive = the rest
786-0 renal = system: 786-0 renal
UO-31 renal = system: UO-31 renal
NCI-H522 lung = system: NCI-H522 lung
SNB-19 CNS = system: SNB-19 CNS
M14 melanoma = system: M14 melanoma
A549 NSCLC = system: A549 NSCLC
HCT-15 colon = system: HCT-15 colon
SF-539 CNS = system: SF-539 CNS
BT-549 breast = system: BT-549 breast
U251 CNS = system: U251 CNS
UACC-62 melanoma = system: UACC-62 melanoma
SNB-75 CNS = system: SNB-75 CNS
SF-295 CNS = system: SF-295 CNS
SK-MEL-28 melanoma = system: SK-MEL-28 melanoma
LOX IMVI melanoma = system: LOX IMVI melanoma
RPMI-8226 leukemia = system: RPMI-8226 leukemia
COLO 205 colon = system: COLO 205 colon

Cc1ccc(O)c(-c2cc(-c3ccccc3)nc(/N=C\c3ccccc3)n2)c1
40.9 µM: TGI (SNB-75 CNS)
> 100 µM: TGI (786-0 renal) | TGI (NCI-H522 lung) | TGI (SNB-19 CNS) | TGI (M14 melanoma) | TGI (A549 NSCLC) | TGI (HCT-15 colon) | TGI (SF-539 CNS) | TGI (U251 CNS) | TGI (SF-295 CNS) | TGI (SK-MEL-28 melanoma) | TGI (LOX IMVI melanoma)
48.6 µM: TGI (UACC-62 melanoma)
13.5 µM: TGI (UO-31 renal)
19.2 µM: TGI (BT-549 breast)

c1ccc(N=C2C(=Nc3ccccc3)N(C3CCCCC3)C(=NC3CCCCC3)N2c2ccccc2)cc1
> 100 µM: TGI (786-0 renal) | TGI (UO-31 renal) | TGI (RPMI-8226 leukemia) | TGI (SNB-19 CNS) | TGI (M14 melanoma) | TGI (A549 NSCLC) | TGI (COLO 205 colon) | TGI (HCT-15 colon) | TGI (BT-549 breast) | TGI (U251 CNS) | TGI (SNB-75 CNS) | TGI (SK-MEL-28 melanoma)

CC(=O)OCC1=C2C(OC(=O)C(C)C)CC3(COC(C)=O)OC3/C=C\C3(C)OC3C2OC1=O (stereo not given)
> 100 µM: TGI (786-0 renal) | TGI (UO-31 renal) | TGI (RPMI-8226 leukemia) | TGI (SNB-19 CNS) | TGI (M14 melanoma) | TGI (A549 NSCLC) | TGI (COLO 205 colon) | TGI (HCT-15 colon) | TGI (SF-539 CNS) | TGI (BT-549 breast) | TGI (U251 CNS) | TGI (UACC-62 melanoma) | TGI (SNB-75 CNS) | TGI (SF-295 CNS) | TGI (SK-MEL-28 melanoma) | TGI (LOX IMVI melanoma)

COC(=O)C(=O)c1cc2ccccc2n1S(=O)(=O)c1ccccc1
> 100 µM: TGI (786-0 renal) | TGI (UO-31 renal) | TGI (NCI-H522 lung) | TGI (SNB-19 CNS) | TGI (M14 melanoma) | TGI (A549 NSCLC) | TGI (COLO 205 colon) | TGI (HCT-15 colon) | TGI (SF-539 CNS) | TGI (BT-549 breast) | TGI (U251 CNS) | TGI (UACC-62 melanoma) | TGI (SNB-75 CNS) | TGI (SF-295 CNS) | TGI (SK-MEL-28 melanoma) | TGI (LOX IMVI melanoma)

CC(C)[Si](Oc1cc2c3c(ccc2c(O)c1[C@@H](C)CO[Si](C)(C)C(C)(C)C)C(C)(C)CCC3)(C(C)C)C(C)C
> 100 µM: TGI (786-0 renal) | TGI (UO-31 renal) | TGI (NCI-H522 lung) | TGI (RPMI-8226 leukemia) | TGI (SNB-19 CNS) | TGI (M14 melanoma) | TGI (A549 NSCLC) | TGI (COLO 205 colon) | TGI (HCT-15 colon) | TGI (SF-539 CNS) | TGI (U251 CNS) | TGI (UACC-62 melanoma) | TGI (SNB-75 CNS) | TGI (SF-295 CNS) | TGI (SK-MEL-28 melanoma) | TGI (LOX IMVI melanoma)

c1ccc2c(c1)ccc1nc3ccccn3c12
> 100 µM: TGI (786-0 renal) | TGI (UO-31 renal) | TGI (RPMI-8226 leukemia) | TGI (SNB-19 CNS) | TGI (M14 melanoma) | TGI (A549 NSCLC) | TGI (COLO 205 colon) | TGI (HCT-15 colon) | TGI (SF-539 CNS) | TGI (BT-549 breast) | TGI (U251 CNS) | TGI (UACC-62 melanoma) | TGI (SNB-75 CNS) | TGI (SF-295 CNS) | TGI (SK-MEL-28 melanoma)

Cn1c2c(c3ccccc31)CC(=O)N1CCCC(C1)CC21OCCO1 (stereo not given)
> 100 µM: TGI (786-0 renal) | TGI (UO-31 renal) | TGI (RPMI-8226 leukemia) | TGI (SNB-19 CNS) | TGI (M14 melanoma) | TGI (A549 NSCLC) | TGI (COLO 205 colon) | TGI (HCT-15 colon) | TGI (BT-549 breast) | TGI (U251 CNS) | TGI (UACC-62 melanoma) | TGI (SNB-75 CNS) | TGI (SF-295 CNS) | TGI (SK-MEL-28 melanoma) | TGI (LOX IMVI melanoma)

CCCC(=O)n1[nH]c(=O)n(C(C)(C)C)c1=O
> 100 µM: TGI (786-0 renal) | TGI (UO-31 renal) | TGI (RPMI-8226 leukemia) | TGI (SNB-19 CNS) | TGI (M14 melanoma) | TGI (A549 NSCLC) | TGI (COLO 205 colon) | TGI (HCT-15 colon) | TGI (BT-549 breast) | TGI (U251 CNS) | TGI (UACC-62 melanoma) | TGI (SNB-75 CNS) | TGI (SF-295 CNS) | TGI (SK-MEL-28 melanoma) | TGI (LOX IMVI melanoma)

CCCC1=NC(C(F)(F)F)(C(F)(F)F)N=C(N2CCOCC2)O1
> 100 µM: TGI (786-0 renal) | TGI (UO-31 renal) | TGI (RPMI-8226 leukemia) | TGI (SNB-19 CNS) | TGI (M14 melanoma) | TGI (A549 NSCLC) | TGI (COLO 205 colon) | TGI (HCT-15 colon) | TGI (SF-539 CNS) | TGI (BT-549 breast) | TGI (U251 CNS) | TGI (UACC-62 melanoma) | TGI (SNB-75 CNS) | TGI (SF-295 CNS) | TGI (SK-MEL-28 melanoma) | TGI (LOX IMVI melanoma)

O=C(O)/C(=C/c1ccccc1[N+](=O)[O-])c1cccs1
> 100 µM: TGI (786-0 renal) | TGI (UO-31 renal) | TGI (NCI-H522 lung) | TGI (RPMI-8226 leukemia) | TGI (SNB-19 CNS) | TGI (M14 melanoma) | TGI (A549 NSCLC) | TGI (COLO 205 colon) | TGI (HCT-15 colon) | TGI (SF-539 CNS) | TGI (U251 CNS) | TGI (UACC-62 melanoma) | TGI (SNB-75 CNS) | TGI (SF-295 CNS) | TGI (SK-MEL-28 melanoma) | TGI (LOX IMVI melanoma)

COc1cc(CC(C)N[C@@H](C)c2ccccc2)cc(OC)c1 (stereo not given in full)
12.9 µM and > 100 µM: TGI (SNB-75 CNS)
inactive: GI50 (A549 NSCLC) 13 µM and > 100 µM | GI50 (SNB-75 CNS) 2.9 µM and 24.7 µM
11.9 µM and > 100 µM: TGI (SK-MEL-28 melanoma)
11.6 µM and > 100 µM: TGI (RPMI-8226 leukemia)
> 100 µM: TGI (NCI-H522 lung) | TGI (SF-539 CNS)
21.5 µM and > 100 µM: TGI (SF-295 CNS)
17.3 µM and > 100 µM: TGI (786-0 renal)
16.1 µM and > 100 µM: TGI (HCT-15 colon)
19.8 µM and > 100 µM: TGI (U251 CNS) | TGI (UACC-62 melanoma)
21.9 µM and > 100 µM: TGI (M14 melanoma)
13.9 µM and > 100 µM: TGI (UO-31 renal)
21.3 µM and > 100 µM: TGI (SNB-19 CNS)
27.1 µM and > 100 µM: TGI (A549 NSCLC)
20.4 µM and > 100 µM: TGI (BT-549 breast)

O=C(Nc1ccc(Cl)cc1Cl)c1cc2nc3ccccc3c(=O)n2c2ccccc12
> 10 µM: TGI (786-0 renal) | TGI (UO-31 renal) | TGI (NCI-H522 lung) | TGI (SNB-19 CNS) | TGI (M14 melanoma) | TGI (A549 NSCLC) | TGI (HCT-15 colon) | TGI (SF-539 CNS) | TGI (BT-549 breast) | TGI (U251 CNS) | TGI (UACC-62 melanoma) | TGI (SF-295 CNS) | TGI (SK-MEL-28 melanoma) | TGI (LOX IMVI melanoma)

CCNC(=S)Nc1c(C#N)c2n(c1C(=O)OCC)CCCCC2
> 100 µM: TGI (786-0 renal) | TGI (UO-31 renal) | TGI (RPMI-8226 leukemia) | TGI (SNB-19 CNS) | TGI (M14 melanoma) | TGI (COLO 205 colon) | TGI (HCT-15 colon) | TGI (SF-539 CNS) | TGI (BT-549 breast) | TGI (U251 CNS) | TGI (UACC-62 melanoma) | TGI (SNB-75 CNS) | TGI (SF-295 CNS) | TGI (SK-MEL-28 melanoma) | TGI (LOX IMVI melanoma)

CC(C)(C)c1cc(Oc2ccc(C#N)c(C#N)c2)cc(C(C)(C)C)c1
> 100 µM: TGI (786-0 renal) | TGI (UO-31 renal) | TGI (NCI-H522 lung) | TGI (RPMI-8226 leukemia) | TGI (SNB-19 CNS) | TGI (M14 melanoma) | TGI (A549 NSCLC) | TGI (COLO 205 colon) | TGI (HCT-15 colon) | TGI (SF-539 CNS) | TGI (U251 CNS) | TGI (UACC-62 melanoma) | TGI (SNB-75 CNS) | TGI (SF-295 CNS) | TGI (SK-MEL-28 melanoma)
94.6 µM: TGI (LOX IMVI melanoma)

C=C(C)C1Cc2c(cc(OC)c3c(=O)c4ccccc4n(C)c23)O1 (stereo not given)
34.3 µM: TGI (NCI-H522 lung)
> 100 µM: TGI (786-0 renal) | TGI (UO-31 renal) | TGI (RPMI-8226 leukemia) | TGI (SNB-19 CNS) | TGI (M14 melanoma) | TGI (A549 NSCLC) | TGI (COLO 205 colon) | TGI (HCT-15 colon) | TGI (SF-539 CNS) | TGI (U251 CNS) | TGI (UACC-62 melanoma) | TGI (SNB-75 CNS) | TGI (SF-295 CNS) | TGI (SK-MEL-28 melanoma) | TGI (LOX IMVI melanoma)
